Like-named read-outs stand apart in the source and are kept apart here.
Assays:
[1] = test system: His6-Δ80PmHS2; assay: Donor substrate specificity of GlcNAcT activity (HPLC), His6-Δ80PmHS2; format: biochemical, Pasteurella multocida; conditions: acceptor GlcAβ2AA
Text: (§1) Donor substrate specificity assays. […] Chromatographic separation and detection were achieved similarly to that described above for kinetics studies.

[2] = test system: His6-PmHS2; assay: Donor substrate specificity of GlcNAcT activity (HPLC), His6-PmHS2; format: biochemical, Pasteurella multocida; conditions: acceptor GlcAβ2AA
Text: as §1

[3] = β1-4-GlcAT activity comparison of His6-Δ80PmHS2 and its D222N and D500N mutants; format: biochemical
Procedure: Reactions were stopped by heating reaction mixtures at 70° C. for 10 min, followed by incubation on ice for 30 min and centrifugation at 11,337 g for 15 min. Supernatants were analyzed similarly to that described above for the coupled-enzyme reverse glycosylation assay.

[4] = Protein expression and purification; set-up: species or system E. coli BL21 (DE3); conditions: per L culture
Procedure: Protein expression and purification. The plasmid-bearing E. coli BL21(DE3) cells were cultured in 1 L of LB-rich media (10 g/L tryptone, 5 g/L yeast extract and 10 g/L NaCl) supplemented with ampicillin (100 μg/mL). Expression of the target protein was achieved by inducing the E. coli culture with 0.1 mM of isopropyl-1-thio-β-D-galactopyranoside (IPTG) when OD600 nm reached 0.8-1.0, followed by incubating at 20° C. for 20 h with shaking at 250 rpm in a C25KC incubator shaker (New Brunswick Scientific, Edison, N.J.). Histidine-tagged target proteins were purified from cell lysate. To obtain the cell lysate, cell pellet harvested by centrifugation at 2,795 g for 50 min was resuspended (25 mL/L cell culture) in lysis buffer (Tris-HCl, 100 mM, pH 8.0 with 0.1% Triton X-100). Sonication protocol was 2 s (sonication)/3 s (rest) for a total of 6 min on ice. Lysed cells were centrifuged at 5,000 g for 50 min and the supernatant (lysate) was collected. Purification of histidine-tagged proteins from the lysate was achieved using a Ni′-resin column. The column was pre-equilibrated with 10 column volumes of binding buffer (5 mM imidazole, 0.5 M NaCl, 50 mM Tris-HCl, pH 7.5). The lysate was then loaded, and the column was washed with 10 column volumes of binding buffer and 10 column volumes of washing buffer (16 mM imidazole, 0.5 M NaCl, 50 mM Tris-HCl, pH 7.5). The target protein was eluted with Tris-HCl buffer (50 mM, pH 7.5) containing imidazole (200 mM) and NaCl (0.5 M). The fractions containing the purified enzymes were collected, and stored at 4° C.

[5] = Reverse glycosylation assay mimicking synthetic conditions; format: biochemical; conditions: 30 mM UDP, conditions mimicking synthetic reactions
Procedure: Reactions were stopped by heating reaction mixtures at 70° C. for 10 min, followed by incubation on ice for 30 min and centrifugation at 11,337 g for 15 min. Supernatants were analyzed similarly to that described above for time-course reverse glycosylation assays.

[6] = α1-4-GlcNAcT activity comparison of His6-Δ80PmHS2 and its D222N and D500N mutants; format: biochemical
Procedure: Reactions were stopped by heating reaction mixture at 70° C. for 10 min, followed by incubation on ice for 30 min and centrifugation at 11,337 g for 15 min. Supernatants were analyzed similarly to that described above for […].

[7] = β1-4GlcA-transferase activity of designed mutants; format: biochemical

Row | Molecule | suitability as donor substrate [1] | suitability as donor substrate [2] | β1-4GlcA-transferase activity [7] | further results
1 | [N-]=[N+]=NCC(=O)N[C@H]1[C@@H](OP(=O)(O)OP(=O)(O)OC[C@H]2O[C@@H](n3ccc(=O)[nH]c3=O)[C@H](O)[C@@H]2O)O[C@H](CO)[C@@H](O)[C@@H]1O [UDP-GlcNAz] | suitable donor substrates | suitable donor substrates |  | 
2 | O=C(N[C@H]1[C@@H](OP(=O)(O)OP(=O)(O)OC[C@H]2O[C@@H](n3ccc(=O)[nH]c3=O)[C@H](O)[C@@H]2O)O[C@H](CO)[C@@H](O)[C@@H]1O)C(F)(F)F [UDP-GlcNTFA] | suitable donor substrates | suitable donor substrates |  | 
3 | [N-]=[N+]=NC1C(OP(=O)(O)OP(=O)(O)OCC2OC(n3ccc(=O)[nH]c3=O)C(O)C2O)OC(CO)C(O)C1O (stereo not drawn) [UDP-GlcN3] | not suitable donor substrates | not suitable donor substrates |  | 
4 | CC(=O)NC1C(OP(=O)(O)OP(=O)(O)OCC2OC(n3ccc(=O)[nH]c3=O)C(O)C2O)OC(COS(=O)(=O)O)C(O)C1O (stereo not drawn) [UDP-GlcNAc6S] | not suitable donor substrates | not suitable donor substrates |  | 
5 | O=c1ccn([C@@H]2O[C@H](COP(=O)(O)OP(=O)(O)O[C@H]3O[C@H](CO)[C@@H](O)[C@H](O)[C@H]3NS(=O)(=O)O)[C@@H](O)[C@H]2O)c(=O)[nH]1 [UDP-GlcNS] | not suitable donor substrates | not suitable donor substrates |  | 
6 | UDP-GlcNAc6NAcPh | not suitable donor substrates | not suitable donor substrates |  | 
7 | CC(=O)NC1C(OP(=O)(O)OP(=O)(O)OCC2OC(n3ccc(=O)[nH]c3=O)C(O)C2O)OC(CN=[N+]=[N-])C(O)C1O (stereo not drawn) [UDP-GlcNAc6N3] | suitable donor substrates | suitable donor substrates |  | 
8 | D222N (protein) MGSSHHHHHHSFEKIYTYNQALEAKLEKDKQTTSITDLYNEVAKSDLGLVKETNSANPLVSIIMTSHNTAQFIEASINSLLLQTYKNIEIIIVDDDSSDNTFEIASRIANTTSKVRVFRLNSNLGTYFAKNTGILKSKGDIIFFQDSDDVCHHERIERCVNILLANKETIAVRCAYSRLAPETQHIIKVNNMDYRLGFITLGMHRKVFQEIGFFNCTTKGSNDEFFHRIAKYYGKEKIKNLLLPLYYNTMRENSLFTDMVEWIDNHNIIQKMSDTRQHYATLFQAMHNETASHDFKNLFQFPRIYDALPVPQEMSKLSNPKIPVYINICSIPSRIAQLQRIIGILKNQCDHFHIYLDGYVEIPDFIKNLGNKATVVHCKDKDNSIRDNGKFILLEELIEKNQDGYYITCDDDIIYPSDYINTMIKKLNEYDDKAVIGLHGILFPSRMTKYFSADRLVYSFYKPLEKDKAVNVLGTGTVSFRVSLFNQFSLSDFTHSGMADIYFSLLCKKNNILQICISRPANWLTEDNRDSETLYHQYRDNDEQQTQLIMENGPWGYSSIYPLVKNHPKFTDLIPCLPFYFL |  |  |  | β1-4-GlcAT activity relative to His6-Δ80PmHS2 [3]: lost; β1-4-GlcAT activity relative to His6-Δ80PmHS2 ([3]; listed as D291N): completely removed; expression level [4]: 50 to 60 mg/L; reverse glycosylation oligosaccharide products [5]: no reverse glycosylation oligosaccharide products were observed; α1-4-GlcNAcT activity relative to His6-Δ80PmHS2 [6]: retained
9 | Y176A (protein) MGSSHHHHHHSFEKIYTYNQALEAKLEKDKQTTSITDLYNEVAKSDLGLVKETNSANPLVSIIMTSHNTAQFIEASINSLLLQTYKNIEIIIVDDDSSDNTFEIASRIANTTSKVRVFRLNSNLGTYFAKNTGILKSKGDIIFFQDSDDVCHHERIERCVNILLANKETIAVRCAASRLAPETQHIIKVNNMDYRLGFITLGMHRKVFQEIGFFNCTTKGSDDEFFHRIAKYYGKEKIKNLLLPLYYNTMRENSLFTDMVEWIDNHNIIQKMSDTRQHYATLFQAMHNETASHDFKNLFQFPRIYDALPVPQEMSKLSNPKIPVYINICSIPSRIAQLQRIIGILKNQCDHFHIYLDGYVEIPDFIKNLGNKATVVHCKDKDNSIRDNGKFILLEELIEKNQDGYYITCDDDIIYPSDYINTMIKKLNEYDDKAVIGLHGILFPSRMTKYFSADRLVYSFYKPLEKDKAVNVLGTGTVSFRVSLFNQFSLSDFTHSGMADIYFSLLCKKNNILQICISRPANWLTEDNRDSETLYHQYRDNDEQQTQLIMENGPWGYSSIYPLVKNHPKFTDLIPCLPFYFL |  |  | retained | 
10 | R195A (protein) MGSSHHHHHHSFEKIYTYNQALEAKLEKDKQTTSITDLYNEVAKSDLGLVKETNSANPLVSIIMTSHNTAQFIEASINSLLLQTYKNIEIIIVDDDSSDNTFEIASRIANTTSKVRVFRLNSNLGTYFAKNTGILKSKGDIIFFQDSDDVCHHERIERCVNILLANKETIAVRCAYSRLAPETQHIIKVNNMDYALGFITLGMHRKVFQEIGFFNCTTKGSDDEFFHRIAKYYGKEKIKNLLLPLYYNTMRENSLFTDMVEWIDNHNIIQKMSDTRQHYATLFQAMHNETASHDFKNLFQFPRIYDALPVPQEMSKLSNPKIPVYINICSIPSRIAQLQRIIGILKNQCDHFHIYLDGYVEIPDFIKNLGNKATVVHCKDKDNSIRDNGKFILLEELIEKNQDGYYITCDDDIIYPSDYINTMIKKLNEYDDKAVIGLHGILFPSRMTKYFSADRLVYSFYKPLEKDKAVNVLGTGTVSFRVSLFNQFSLSDFTHSGMADIYFSLLCKKNNILQICISRPANWLTEDNRDSETLYHQYRDNDEQQTQLIMENGPWGYSSIYPLVKNHPKFTDLIPCLPFYFL |  |  | retained | 
11 | L196A (protein) MGSSHHHHHHSFEKIYTYNQALEAKLEKDKQTTSITDLYNEVAKSDLGLVKETNSANPLVSIIMTSHNTAQFIEASINSLLLQTYKNIEIIIVDDDSSDNTFEIASRIANTTSKVRVFRLNSNLGTYFAKNTGILKSKGDIIFFQDSDDVCHHERIERCVNILLANKETIAVRCAYSRLAPETQHIIKVNNMDYRAGFITLGMHRKVFQEIGFFNCTTKGSDDEFFHRIAKYYGKEKIKNLLLPLYYNTMRENSLFTDMVEWIDNHNIIQKMSDTRQHYATLFQAMHNETASHDFKNLFQFPRIYDALPVPQEMSKLSNPKIPVYINICSIPSRIAQLQRIIGILKNQCDHFHIYLDGYVEIPDFIKNLGNKATVVHCKDKDNSIRDNGKFILLEELIEKNQDGYYITCDDDIIYPSDYINTMIKKLNEYDDKAVIGLHGILFPSRMTKYFSADRLVYSFYKPLEKDKAVNVLGTGTVSFRVSLFNQFSLSDFTHSGMADIYFSLLCKKNNILQICISRPANWLTEDNRDSETLYHQYRDNDEQQTQLIMENGPWGYSSIYPLVKNHPKFTDLIPCLPFYFL |  |  | retained | 
12 | I199A (protein) MGSSHHHHHHSFEKIYTYNQALEAKLEKDKQTTSITDLYNEVAKSDLGLVKETNSANPLVSIIMTSHNTAQFIEASINSLLLQTYKNIEIIIVDDDSSDNTFEIASRIANTTSKVRVFRLNSNLGTYFAKNTGILKSKGDIIFFQDSDDVCHHERIERCVNILLANKETIAVRCAYSRLAPETQHIIKVNNMDYRLGFATLGMHRKVFQEIGFFNCTTKGSDDEFFHRIAKYYGKEKIKNLLLPLYYNTMRENSLFTDMVEWIDNHNIIQKMSDTRQHYATLFQAMHNETASHDFKNLFQFPRIYDALPVPQEMSKLSNPKIPVYINICSIPSRIAQLQRIIGILKNQCDHFHIYLDGYVEIPDFIKNLGNKATVVHCKDKDNSIRDNGKFILLEELIEKNQDGYYITCDDDIIYPSDYINTMIKKLNEYDDKAVIGLHGILFPSRMTKYFSADRLVYSFYKPLEKDKAVNVLGTGTVSFRVSLFNQFSLSDFTHSGMADIYFSLLCKKNNILQICISRPANWLTEDNRDSETLYHQYRDNDEQQTQLIMENGPWGYSSIYPLVKNHPKFTDLIPCLPFYFL |  |  | retained | 
13 | T200A (protein) MGSSHHHHHHSFEKIYTYNQALEAKLEKDKQTTSITDLYNEVAKSDLGLVKETNSANPLVSIIMTSHNTAQFIEASINSLLLQTYKNIEIIIVDDDSSDNTFEIASRIANTTSKVRVFRLNSNLGTYFAKNTGILKSKGDIIFFQDSDDVCHHERIERCVNILLANKETIAVRCAYSRLAPETQHIIKVNNMDYRLGFIALGMHRKVFQEIGFFNCTTKGSDDEFFHRIAKYYGKEKIKNLLLPLYYNTMRENSLFTDMVEWIDNHNIIQKMSDTRQHYATLFQAMHNETASHDFKNLFQFPRIYDALPVPQEMSKLSNPKIPVYINICSIPSRIAQLQRIIGILKNQCDHFHIYLDGYVEIPDFIKNLGNKATVVHCKDKDNSIRDNGKFILLEELIEKNQDGYYITCDDDIIYPSDYINTMIKKLNEYDDKAVIGLHGILFPSRMTKYFSADRLVYSFYKPLEKDKAVNVLGTGTVSFRVSLFNQFSLSDFTHSGMADIYFSLLCKKNNILQICISRPANWLTEDNRDSETLYHQYRDNDEQQTQLIMENGPWGYSSIYPLVKNHPKFTDLIPCLPFYFL |  |  | retained | 

Source: patent US11441131B2, “Heparosan synthases and use thereof for saccharide synthesis” (The Regents of the University of California, priority 2019, dated 2022)
